# Experiment: Glucose measurement (RTCM and glucose meter) in an awake diabetic rat after insulin injection
# Assay type: in vivo
# Conditions: conscious diabetic rat, after 40 minutes, same amount of insulin as in anesthetized rats
# Procedure: FIGS. 6A-6B show glucose and insulin measurements in an awake diabetic rat. An awake diabetic rat was injected with human insulin, with blood samples collected at t=0, 5, 20, and 40 min after injection. Glucose levels were measured using RTCM and glucose meter (FIG. 6A), and insulin levels were measured using RTCM and ELISA (FIG. 6B).
# Male Sprague Dawley rats (Charles River) were used for experiments. Animal studies were performed in accordance with the guidelines for the care and use of laboratory animals; all protocols were approved by the Stanford Institutional Animal Care and Use Committee. The protocol used for STZ induction adapted from the protocol by Kenneth K. Wu and Youming Huan (Wu, K. K., & Huan, Y. Streptozotocin-induced diabetic models in mice and rats. Curr. Protoc. Pharmacol. 5, 1-14 (2008)). Briefly, male Sprague Dawley rats 160-230 g (8-10 weeks) were weighed and fasted 6-8 hours prior to treatment with STZ. STZ was diluted to 10 mg/mL in the sodium citrate buffer immediately before injection. STZ solution was injected intraperitoneally at 65 mg/kg into each rat. Rats were provided with water containing 10% sucrose for 24 hours after injection with STZ. Rat blood glucose levels were tested for hyperglycemia daily after the STZ treatment via tail vein blood collection using a handheld Bayer Contour Next glucose monitor (Bayer). […]
substance,measurement,value
"insulin: human insulin injected into an awake diabetic rat, same amount as in anesthetized rats; probably Humulin R",Decrease in glucose level,7 mM

# — patent US12631626B2, “Continuous real-time monitoring of biomolecules in live subjects” (priority 2020, dated 2026)
